Experimental data published in patent US6355799B1, “Substituted benzene compounds, process for their preparation, and herbicidal and defoliant compositions containing them” (ISK Americas Incorporated, priority 1997, dated 2002).

Experiments:
Type in all cases: in vivo
[1] = tested on: redroot pigweed (Amaranthus retroflexus, AMARE); assay: Pre-emerge test, greenhouse herbicide activity screening; conditions: rated 14 days after application, 0 = no damage, 100 = complete death
In short: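 Compounds in acetone were track-sprayed at 187 l/ha, 15–1000 g ai/ha, onto sandy loam pots. Pre-emerge seeds were sown one day before spraying, with surface watering afterwards. Post-emerge plants were at the 2–3 leaf stage and sprayed with 0.25% v/v non-ionic surfactant. Injury was rated 0–100 at 14 days.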

[2] = tested on: barnyardgrass (Echinochloa crus-galli, ECHCG); assay: as above; conditions: rated 14 days after application, 0 = no damage, 100 = complete death
In short: (§1)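 Compounds in acetone were track-sprayed at 15-1000 g ai/ha (187 l/ha) on sandy loam pots: pre-emerge one day after seeding, post-emerge at 2-3 leaf stage with 0.25% v/v non-ionic surfactant. Phytotoxicity was rated 14 days later on a 0 (no damage) to 100 (complete death) scale.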

[3] = tested on: common ragweed (Ambrosia artemisizfolia L., AMBEL); assay: as above; conditions: rated 14 days after application, 0 = no damage, 100 = complete death
In short: as §1

[4] = tested on: green foxtail (Setaria viridis, SETVI); assay: as above; conditions: rated 14 days after application, 0 = no damage, 100 = complete death
In short: as §1

[5] = tested on: ivyleaf morningglory (Ipomoea hederacea, IPOHE); assay: as above; conditions: rated 14 days after application, 0 = no damage, 100 = complete death
In short: as §1

[6] = tested on: johnsongrass (Sorghum halepense, SORHA); assay: as above; conditions: rated 14 days after application, 0 = no damage, 100 = complete death
In short: as §1

[7] = tested on: lambsquarters (Chenopodium album, CHEAL); assay: as above; conditions: rated 14 days after application, 0 = no damage, 100 = complete death
In short: as §1

[8] = tested on: large crabgrass (Digitaria sanguinalis, DIGSA); assay: as above; conditions: rated 14 days after application, 0 = no damage, 100 = complete death
In short: as §1

[9] = tested on: sicklepod (Cassia obtusifolia, CASOB); assay: as above; conditions: rated 14 days after application, 0 = no damage, 100 = complete death
In short: as §1

[10] = tested on: velvetleaf (Abutilon theophrasti, ABUTH); assay: as above; conditions: rated 14 days after application, 0 = no damage, 100 = complete death
In short: as §1

[11] = tested on: field corn (Zea mays L., var. Dekalb 535, CORN); assay: Pre-emerge test, crop safety; conditions: rated 14 days after application, 0 = no damage, 100 = complete death
In short: (§2)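 Rating: 0–100 visual injury, 14 DAA. Application: acetone, 187 l/ha, 15–1000 g ai/ha, flat-fan track sprayer with nozzle 40–45 cm above soil or canopy. Post-emerge runs used 0.25% v/v surfactant on 2–3 leaf plants.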

[12] = tested on: upland rice (Oryza sp., var. Tebonnet, RICE); assay: Pre-emerge test, crop safety; conditions: rated 14 days after application, 0 = no damage, 100 = complete death
In short: as §2

[13] = tested on: barnyardgrass (Echinochloa crus-galli, ECHCG); assay: Post-emerge test, greenhouse herbicide activity screening; conditions: post-emerge, 14 days after application, rating scale 0-100
In short: (§3)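 Plants grown in 10 cm pots of sandy loam mix received acetone-dissolved compounds through a moving flat-fan nozzle. Doses ranged from 15 to 1000 g ai/ha. Pre-emerge pots were seeded one day earlier, post-emerge pots 8–21 days earlier. Fourteen days on, each pot was graded 0–100 for damage.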

[14] = tested on: common ragweed (Ambrosia artemisizfolia L., AMBEL); assay: as above; conditions: post-emerge, 14 days after application, rating scale 0-100
In short: as §3

[15] = tested on: green foxtail (Setaria viridis, SETVI); assay: as above; conditions: post-emerge, 14 days after application, rating scale 0-100
In short: as §3

[16] = tested on: ivyleaf morningglory (Ipomoea hederacea, IPOHE); assay: as above; conditions: post-emerge, 14 days after application, rating scale 0-100
In short: as §3

[17] = tested on: johnsongrass (Sorghum halepense, SORHA); assay: as above; conditions: post-emerge, 14 days after application, rating scale 0-100
In short: as §3

[18] = tested on: lambsquarters (Chenopodium album, CHEAL); assay: as above; conditions: post-emerge, 14 days after application, rating scale 0-100
In short: as §3

[19] = tested on: large crabgrass (Digitaria sanguinalis, DIGSA); assay: as above; conditions: post-emerge, 14 days after application, rating scale 0-100
In short: as §3

[20] = tested on: redroot pigweed (Amaranthus retroflexus, AMARE); assay: as above; conditions: post-emerge, 14 days after application, rating scale 0-100
In short: as §3

[21] = tested on: sicklepod (Cassia obtusifolia, CASOB); assay: as above; conditions: post-emerge, 14 days after application, rating scale 0-100
In short: as §3

[22] = tested on: velvetleaf (Abutilon theophrasti, ABUTH); assay: as above; conditions: post-emerge, 14 days after application, rating scale 0-100
In short: as §3

[23] = tested on: field corn (Zea mays L., var. Dekalb 535, CORN); assay: Post-emerge test, crop safety; conditions: post-emerge, 14 days after application, rating scale 0-100
In short: as §1

[24] = tested on: upland rice (Oryza sp., var. Tebonnet, RICE); assay: Post-emerge test, crop safety; conditions: post-emerge, 14 days after application, rating scale 0-100
In short: as §1

COc1c(Cl)cc(F)c(-n2c(=O)cc(C(F)(F)F)n(C)c2=O)c1NC(=O)c1ccccc1Cl [2-53]
20: phytotoxicity rating SETVI ([15]; 63 g ai/ha) | phytotoxicity rating DIGSA ([19]; 250 g ai/ha)
10: phytotoxicity rating CORN ([23]; 63 g ai/ha)
80: Pre-emerge Herbicidal Activity, phytotoxicity rating (0-100), AMBEL ([3]; 63 g ai/ha) | Pre-emerge phytotoxicity rating (0-100), crop damage, RICE ([12]; 63 g ai/ha)
50: phytotoxicity rating SORHA ([17]; 250 g ai/ha)
25: Pre-emerge phytotoxicity rating (0-100), crop damage, CORN ([11]; 63 g ai/ha)
99: Pre-emerge Herbicidal Activity, phytotoxicity rating (0-100), ECHCG ([2]; 250 g ai/ha)
0: phytotoxicity rating ECHCG ([13]; 63 g ai/ha) | phytotoxicity rating SORHA ([17]; 63 g ai/ha) | phytotoxicity rating DIGSA ([19]; 63 g ai/ha)
90: Pre-emerge Herbicidal Activity, phytotoxicity rating (0-100), DIGSA ([8]; 63 g ai/ha) | Pre-emerge phytotoxicity rating (0-100), crop damage, CORN ([11]; 250 g ai/ha) | Pre-emerge phytotoxicity rating (0-100), crop damage, RICE ([12]; 250 g ai/ha) | phytotoxicity rating AMBEL ([14]; 250 g ai/ha) | phytotoxicity rating IPOHE ([16]; 63 g ai/ha) | phytotoxicity rating AMARE ([20]; 63 g ai/ha)
100: Pre-emerge Herbicidal Activity, phytotoxicity rating (0-100), AMARE ([1]; 63 g ai/ha) | Pre-emerge Herbicidal Activity, phytotoxicity rating (0-100), AMARE ([1]; 250 g ai/ha) | Pre-emerge Herbicidal Activity, phytotoxicity rating (0-100), AMBEL ([3]; 250 g ai/ha) | Pre-emerge Herbicidal Activity, phytotoxicity rating (0-100), SETVI ([4]; 63 g ai/ha) | Pre-emerge Herbicidal Activity, phytotoxicity rating (0-100), SETVI ([4]; 250 g ai/ha) | Pre-emerge Herbicidal Activity, phytotoxicity rating (0-100), IPOHE ([5]; 63 g ai/ha) | Pre-emerge Herbicidal Activity, phytotoxicity rating (0-100), IPOHE ([5]; 250 g ai/ha) | Pre-emerge Herbicidal Activity, phytotoxicity rating (0-100), SORHA ([6]; 250 g ai/ha) | Pre-emerge Herbicidal Activity, phytotoxicity rating (0-100), CHEAL ([7]; 63 g ai/ha) | Pre-emerge Herbicidal Activity, phytotoxicity rating (0-100), CHEAL ([7]; 250 g ai/ha) | Pre-emerge Herbicidal Activity, phytotoxicity rating (0-100), DIGSA ([8]; 250 g ai/ha) | Pre-emerge Herbicidal Activity, phytotoxicity rating (0-100), CASOB ([9]; 250 g ai/ha) | Pre-emerge Herbicidal Activity, phytotoxicity rating (0-100), ABUTH ([10]; 63 g ai/ha) | Pre-emerge Herbicidal Activity, phytotoxicity rating (0-100), ABUTH ([10]; 250 g ai/ha) | phytotoxicity rating IPOHE ([16]; 250 g ai/ha) | phytotoxicity rating CHEAL ([18]; 250 g ai/ha) | phytotoxicity rating AMARE ([20]; 250 g ai/ha) | phytotoxicity rating CASOB ([21]; 250 g ai/ha) | phytotoxicity rating ABUTH ([22]; 63 g ai/ha) | phytotoxicity rating ABUTH ([22]; 250 g ai/ha)
30: phytotoxicity rating RICE ([24]; 63 g ai/ha)
40: Pre-emerge Herbicidal Activity, phytotoxicity rating (0-100), ECHCG ([2]; 63 g ai/ha) | Pre-emerge Herbicidal Activity, phytotoxicity rating (0-100), SORHA ([6]; 63 g ai/ha) | phytotoxicity rating SETVI ([15]; 250 g ai/ha)
95: Pre-emerge Herbicidal Activity, phytotoxicity rating (0-100), CASOB ([9]; 63 g ai/ha) | phytotoxicity rating CHEAL ([18]; 63 g ai/ha)
70: phytotoxicity rating ECHCG ([13]; 250 g ai/ha) | phytotoxicity rating AMBEL ([14]; 63 g ai/ha) | phytotoxicity rating CASOB ([21]; 63 g ai/ha) | phytotoxicity rating CORN ([23]; 250 g ai/ha) | phytotoxicity rating RICE ([24]; 250 g ai/ha)
